The subject of one series is C. albicans biofilms. The series can be described thus: Biofilm checkerboard assay (CTB metabolic activity, BEC-2, FICI). The conditions noted are these: for BEC-2 MCZ: 24 h.
Series [1] deals with C. glabrata biofilms (strain BG2). The series is described as follows: Biofilm checkerboard assay with CFU determination (Example 9). The series is classed as cell-based, Candida glabrata. The note with it: on its own or in combination with DB. How it is done: After 1 h of adhesion at 37° C., the medium was aspirated and biofilms were washed with 100 μL PBS to remove non-adherent cells, followed by the addition of 100 μL RPMI 1640 medium. Biofilms were allowed to grow for 24 h at 37° C. To determine possible potentiation of MCZ by DB, a checkerboard assay was used. […] After 38 h of incubation at 37° C., CFU determination was performed on treated biofilms. […] Serial dilutions (10^−2, 10^−3 and 10^−4) were plated on YPD agar plates, followed by an incubation period of 24 h at 37° C. and subsequent colony counting.

For series [2] the following is noted: cited from earlier work.
For series [3], the system named is C. albicans biofilm cells. The series can be described thus: Kinetic PI (propidium iodide) fluorescence assay on biofilms. It counts as cell-based, Candida albicans.
Series [4] deals with planktonic C. glabrata cultures (strain BG2). The series can be described thus: Checkerboard assay with determination of the MIC. The series is classed as cell-based, Candida glabrata. On the procedure: A C. glabrata BG2 overnight culture, grown in YPD, was diluted to an optical density of 0.1 (approximately 10^6 cells/mL) in RPMI medium, preheated at 37° C. 90 μL of the cell suspension was added to the wells of a 96 well plate, containing 10 μL of a combination of MCZ and DB, two fold diluted across rows and columns respectively (DMSO background 2%). After both 24 h and 48 h of incubation at 37° C., absorbance was measured at 490 nm by a multimode reader (Synergy Mx multi-mode microplate reader, BioTek, USA).
Domiphen bromide (DB) is a potentiator of miconazole against C. glabrata biofilms. […] MIC values were determined using Graphpad Prism 6 (table 8).

Setting [5] is: single treatment at 50 μM, 5-10 h after treatment.

Some results are limits rather than exact numbers.

As for `CC[N+](CC)(CC)CC.[Br-]` [tetraethylammonium bromide], the “FICI with Miconazole” value in the series on C. albicans biofilms (quaternary ammonium compound combined with Miconazole) is reported as more than 0.5.

With `CC[C@@H]([C@H](C)O)n1ncn(-c2ccc(N3CCN(c4ccc(OC[C@@H]5CO[C@@](Cn6cncn6)(c6ccc(F)cc6F)C5)cc4)CC3)cc2)c1=O` [Posaconazole], in series [1], the “antibiofilm activity against C. glabrata biofilms” value is “no significant antibiofilm activity”.

Take `Clc1ccc(COC(Cn2ccnc2)c2ccc(Cl)cc2Cl)c(Cl)c1` (stereo not drawn) [miconazole nitrate]: in series [2], the solubility in water entry was “insoluble in water”.

For `Clc1ccc(COC(Cn2ccnc2)c2ccc(Cl)cc2Cl)c(Cl)c1` (racemic) [Miconazole, (RS)-1-[2-(2,4-dichlorofenyl)-2-[(2,4-dichlorofenyl)methoxy]ethyl] imidazole], the PI fluorescence result in series [3] (single treatment 150 μM, after 16 h of treatment) is recorded as “slight increase”. For the same compound, in series [2], the solubility in water entry is reported as “insoluble in water”. Moreover, the “BEC-2 MCZ” value worked out at 230 µM in the series with C. albicans biofilms (0 μM DB (MCZ alone)); 150 µM in the series on C. albicans biofilms (in combination with 1.56 μM DB); 100 µM with C. albicans biofilms (in combination with 3.125 μM DB); 55 µM in the series with C. albicans biofilms (in combination with 6.25 μM DB); 30 µM in the series on C. albicans biofilms (in combination with 12.5 μM DB); 1 µM in the series on C. albicans biofilms (in combination with 25 μM DB).

For the compound `CCCCCCCCCCCC[N+](C)(C)CCOc1ccccc1` [domiphen bromide, N,N-dimetyl-N-(2-phenoxyetyl)-, bromide], the PI fluorescence result in series [3] (setting [5]) is given as “slight increase”. Moreover, the solubility in water result in series [2] is “highly soluble in water”.

Regarding benzalkonium chloride, in series [3] (setting [5]), the PI fluorescence result is on record as “slight increase”. For the same compound, the “potentiation of MCZ against planktonic C. glabrata cultures” value in series [4] is given as “could not potentiate MCZ”.

The values above are taken from patent US11793790B2, “Compositions against Candida infections” (Katholieke Universiteit Leuven, priority 2017, dated 2023).
